Data published in PMC2635096 (Journal of biological inorganic chemistry : JBIC : a …, 2008).
Read-outs that look alike come from different tables or passages of the source.

What was measured:
[1] = target: NP1 (wild-type nitrophorin 1) (Rhodnius prolixus, UniProt Q26239); assay: UV/Vis ligand titration, equilibrium binding constants
[2] = tested on: H60C_NP1 (His-60 to Cys-60 mutant of nitrophorin 1); assay: biochemical; format: binding, Rhodnius prolixus; conditions: H60C_NP1 vs NP1
[3] = target: H60C_NP1 (His-60 to Cys-60 mutant of nitrophorin 1) (Rhodnius prolixus, UniProt Q26239, H82C); assay: biochemical; format: binding
[4] = read-out: Dissociation constant (Kd) of ligand complex of NP1, 25°C, PBS buffer (50mM Na-phosphate, 100 mM NaCl, pH 7.4), UV/Vis titration

NP1 (wild-type nitrophorin 1), sequence (Q26239 24-207): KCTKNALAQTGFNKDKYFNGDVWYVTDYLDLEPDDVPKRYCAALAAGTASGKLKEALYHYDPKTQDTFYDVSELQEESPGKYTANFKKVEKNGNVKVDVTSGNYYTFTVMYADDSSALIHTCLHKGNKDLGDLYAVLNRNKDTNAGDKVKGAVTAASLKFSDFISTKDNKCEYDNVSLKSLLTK
H60C_NP1 (His-60 to Cys-60 mutant of nitrophorin 1) (Rhodnius prolixus, UniProt Q26239, H82C), sequence (Q26239 24-207 H82C): as the sequence (Q26239 24-207) above, with H59C counted along it

Structure (SMILES): c1c[nH]cn1 [Imidazole]
- Kd [1, 4]: 255 nM
- Kd ([1]; read-out: Dissociation constant (Kd) of ligand complex of NP1, 25°C, PBS buffer (50mM Na-phosphate, 100 mM NaCl, pH 7.4), UV/Vis titration, listed as imidazole): 250 nM

Structure (SMILES): CCCCn1ccnc1 [N-(n-Butyl)imidazole]
- Kd [1, 4]: 52 nM

Structure (SMILES): Cc1c[nH]cn1 [4-Methylimidazole]
- Kd [1]: 182 nM
- Increase in dissociation constant for H60C_NP1 relative to NP1 [2]: more than three orders of magnitude
- Kd [3]: 560000 nM
